According to patent US7176217B2, “Azabicyclo compound matrix metalloprotease inhibitor and skin preparation” (Shiseido Co., Ltd., priority 2001, dated 2007):

Target: T1, MMP-9 (crude enzyme solution derived from a mouse skin) (Mus musculus, UniProt P41245)
T1 construct: crude enzyme solution derived from a mouse skin; from tissue; host or cells: mouse skin
Assay: Gelatinase group MMPs inhibition test (gelatin zymography)
Type: biochemical
Set-up: key: ⊚: The band disappeared.; ◯: The band was slightly confirmed.; Δ: The band became narrower than control.; X: Unchanged
Settings: sample solution 100 μM; gel incubated overnight; size of MMP-9 band compared with control solution
Protocol: A test material was dissolved in dimethyl sulfoxide (DMSO) to the concentration of 10 mM, to prepare a stock solution. The stock solution was diluted with a measuring buffer (0.05M tris at pH 7.5 containing 0.2M NaCl and 5 mM CaCl2) to adjust the concentration to 100 μM, which was used as a sample solution. As a control solution, a solution containing no test material was similarly prepared.
As a gelatinase group enzyme, MMP-9 (crude enzyme solution derived from a mouse skin) was used. The test was performed according to a gelatin zymography method (“Bio-antioxidant provitamin C”, Nobuhiko Miwa ed., p. 76, 1999, Fragrance Journal, Tokyo).
That is, a gel containing gelatin in which a predetermined amount of the crude enzyme solution had been subjected to electrophoresis in advance, was incubated overnight with a sample solution or a control solution. After the gel was stained, the appearing band corresponding to MMP-9 was evaluated by a decrease when its size compared with that of a band of control solution. Evaluation criteria was as follows: • ⊚: The band disappeared. • ◯: The band was slightly confirmed. • Δ: The band became narrower than control. • X: Unchanged.

T1 sequence (P41245 108-730): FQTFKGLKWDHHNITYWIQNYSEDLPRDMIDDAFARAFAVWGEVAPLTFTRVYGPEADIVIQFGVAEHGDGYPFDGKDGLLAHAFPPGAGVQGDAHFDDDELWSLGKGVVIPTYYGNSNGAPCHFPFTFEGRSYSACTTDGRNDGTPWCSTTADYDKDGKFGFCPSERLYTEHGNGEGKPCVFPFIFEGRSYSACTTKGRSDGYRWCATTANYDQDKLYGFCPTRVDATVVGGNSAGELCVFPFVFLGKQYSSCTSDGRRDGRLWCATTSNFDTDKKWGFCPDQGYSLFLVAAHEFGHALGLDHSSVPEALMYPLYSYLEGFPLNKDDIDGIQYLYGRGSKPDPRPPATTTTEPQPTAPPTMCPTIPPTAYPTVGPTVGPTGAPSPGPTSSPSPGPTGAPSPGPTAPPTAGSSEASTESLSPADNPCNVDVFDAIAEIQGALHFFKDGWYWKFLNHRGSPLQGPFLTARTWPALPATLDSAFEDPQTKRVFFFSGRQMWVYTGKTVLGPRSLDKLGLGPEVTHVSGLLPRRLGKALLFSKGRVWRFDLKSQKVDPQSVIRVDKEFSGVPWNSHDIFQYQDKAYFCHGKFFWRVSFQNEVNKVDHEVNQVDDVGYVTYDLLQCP

Row | SMILES | MMPs Inhibition
1 | COc1ccc(S(=O)(=O)N2C3CCC(CC3)[C@@H]2C(=O)NO)cc1 [Compound 7, (3R)—N-Hydroxy-2-[(4-methoxyphenyl)sulfonyl]-2-azabicyclo[2.2.2]octane-3-carboxamide] | ◯~⊚
2 | COc1ccc(S(=O)(=O)N2C3CCC(C3)C2C(=O)NO)cc1 (centres unmarked) [Compound 1, N-Hydroxy-2-[(4-methoxyphenyl)sulfonyl]-2-azabicyclo[2.2.1]heptane-3-carboxamide] | ◯~⊚
3 | O=C(NO)[C@H]1[C@@H]2CC[C@@H](C2)N1S(=O)(=O)c1ccc(F)cc1 [Compound 13, (1S, 3R, 4R)-2-[(4-Fluorophenyl)sulfonyl]-N-hydroxy-2-azabicyclo[2.2.1]heptane-3-carboxamide] | ◯
4 | COc1ccc(S(=O)(=O)N2[C@H]3CC[C@H](C3)[C@@H]2C(=O)NO)cc1 [Compound 3, (1S, 3R, 4R)—N-Hydroxy-2-[(4-methoxyphenyl)sulfonyl]-2-azabicyclo[2.2.1]heptane-3-carboxamide] | ◯~⊚
5 | O=C(NO)[C@H]1[C@@H]2CC[C@@H](C2)N1S(=O)(=O)c1ccc(Cl)cc1 [Compound 9, (1S, 3R, 4R)-2-[(4-Chlorophenyl)sulfonyl]-N-hydroxy-2-azabicyclo[2.2.1]heptane-3-carboxamide] | ◯
6 | O=C(NO)[C@H]1[C@@H]2CC[C@@H](C2)N1S(=O)(=O)c1ccccc1 [Compound 8, (1S, 3R, 4R)—N-Hydroxy-2-(phenylsulfonyl)-2-azabicyclo[2.2.1]heptane-3-carboxamide] | ◯
7 | CCCCOc1ccc(S(=O)(=O)N2[C@H]3CCC(C3)[C@@H]2C(=O)NO)cc1 [Compound 12, (1S, 3R, 4R)-2-[4-(Butoxyphenyl)sulfonyl]-N-hydroxy-2-azabicyclo[2.2.1]heptane-3-carboxamide] | ⊚
8 | COc1ccc(S(=O)(=O)N2[C@@H]3CC(C(C)(C)C)[C@H](C3)[C@@H]2C(=O)NO)cc1 (stereo partly drawn) [Compound 14, 5-(tert-Butyl)-(1R, 3R, 4S)—N-hydroxy-2-[(4-methoxyphenyl)sulfonyl]-2-azabicyclo[2.2.1]heptane-3-carboxamide] | ◯
